Structures are written as SMILES.

Assay [1] deals with XIAP-BIR3 (Homo sapiens (Human), UniProt P98170). The assay is described as follows: BIR binding assay (FRET competition), XIAP BIR3. Conditions: for XIAP BIR3 vs BIR2 separation window: fold separation (FS) for XIAP. Put shortly:
(§1)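 His-tagged domains (50 nM cIAP1-BIR3, 325 nM cIAP2-BIR2, 325 nM cIAP1-BIR2, 100 nM XIAP-BIR3) compete with compounds for a 200 nM AlexaFluor647-labelled SMAC/DIABLO peptide in HEPES buffer, pH 7.4, for 60 min. Then 2 nM Eu-W1024 is added for 30 min. The 615/665 nm ratio is fit by four-parameter fit to give IC50.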

In assay [2] the target is XIAP-BIR2 (Homo sapiens (Human), UniProt P98170). The assay is described as follows: BIR binding assay (FRET competition), XIAP BIR2. To be noted: FRET competition; read-out: XIAP BIR2 (pIC50) (converted). The method in brief: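 Compounds in a 15-point, 3-fold series competed with an AlexaFluor647 SMAC peptide (AVPIAQKSE, 200 nM) for 200 nM His-tagged XIAP-BIR2 over 60 min in pH 7.4 HEPES/CHAPS/DTT buffer. Eu-W1024 (2 nM) was then added for 30 min. IC50 and pIC50 were derived from the 615 nm/665 nm emission ratio by variable-slope fit.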

In assay [3] the target is cIAP1-BIR3 (Homo sapiens (Human), UniProt Q13490). The assay is described as follows: BIR binding assay (FRET competition), cIAP1 BIR3. To be noted: for cIAP1 BIR3 vs BIR2 separation window: fold separation (FS) for cIAP1. Put shortly: as §1
Assay [4] deals with cIAP2-BIR3 (Homo sapiens (Human), UniProt Q13489). The assay is described as follows: BIR binding assay (FRET competition), cIAP2 BIR3. To be noted: for cIAP2 BIR3 vs BIR2 separation window: fold separation (FS) for cIAP2.
Assay [5] has as its target cIAP1-BIR2 (Homo sapiens (Human), UniProt Q13490). Briefly: BIR binding assay (FRET competition), cIAP1 BIR2. Put shortly:
as §1

In assay [6] the target is cIAP2-BIR2 (Homo sapiens (Human), UniProt Q13489). The assay is described as follows: BIR binding assay (FRET competition), cIAP2 BIR2. The method in brief: as §1
In assay [7] the test system is Jurkat HIV-luciferase clones. Briefly: Jurkat latency reversal assay. Conditions: Homo sapiens, 48 h; Jurkat latency reversal assay potency; read-out: Jurkat pEC50 (converted). The class given is cell-based. Put shortly: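 Pooled Jurkat clones C16, 115 and N6, each carrying one or two integrated HIV-luciferase proviruses and kept in 500 nM EFV, were exposed to 3-fold, 14-point compound titrations in duplicate (10 μM top, 0.5% DMSO) for 48 h at 37° C. Luciferase luminescence was fitted by four-parameter logistic regression for EC50 and maximal percent activation versus vehicle.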

Sequence of cIAP1-BIR2 (Q13490 173-257): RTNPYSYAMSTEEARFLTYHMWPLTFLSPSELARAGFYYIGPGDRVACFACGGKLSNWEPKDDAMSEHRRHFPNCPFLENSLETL
Sequence of XIAP-BIR3 (P98170 241-356): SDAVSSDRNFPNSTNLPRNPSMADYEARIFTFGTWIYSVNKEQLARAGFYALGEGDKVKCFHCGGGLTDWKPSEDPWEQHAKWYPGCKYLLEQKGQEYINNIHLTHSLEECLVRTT
Sequence of cIAP1-BIR3 (Q13490 253-363): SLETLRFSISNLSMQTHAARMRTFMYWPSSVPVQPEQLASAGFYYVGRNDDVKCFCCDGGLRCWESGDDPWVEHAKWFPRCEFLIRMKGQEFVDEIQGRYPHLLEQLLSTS
Sequence of cIAP2-BIR2 (Q13489 158-242): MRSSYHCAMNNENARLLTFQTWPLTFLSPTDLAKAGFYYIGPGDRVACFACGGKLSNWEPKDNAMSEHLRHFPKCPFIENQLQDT
Sequence of cIAP2-BIR3 (Q13489 238-349): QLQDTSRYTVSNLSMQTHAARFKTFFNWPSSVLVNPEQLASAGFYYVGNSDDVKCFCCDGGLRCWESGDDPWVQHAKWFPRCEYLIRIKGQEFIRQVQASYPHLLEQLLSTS
Sequence of XIAP-BIR2 (P98170 124-240): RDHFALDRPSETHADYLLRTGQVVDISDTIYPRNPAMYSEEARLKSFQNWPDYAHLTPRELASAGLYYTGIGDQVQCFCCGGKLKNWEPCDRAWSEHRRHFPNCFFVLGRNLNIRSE

`C[C@@H]1CN(CC(=O)N2CC(C)(C)c3[nH]c(=O)c(Cc4c(F)cc(F)cc4F)cc32)[C@@H](CN2CCO[C@H](C(=O)NCc3ccc(CNC(=O)[C@@H]4CN(C[C@H]5CN[C@H](C)CN5CC(=O)N5CC(C)(C)c6[nH]c(=O)c(Cc7c(F)cc(F)cc7F)cc65)CCO4)cc3)C2)CN1` [Compound 167, (2S,2′S)-N,N′-(1,4-phenylenebis(methylene)) bis(4-(((2R,5R)-1-(2-(3,3-dimethyl-5-oxo-6-(2,4,6-trifluorobenzyl)-2,3,4,5-tetrahydro-1H-pyrrolo[3,2-b]pyridin-1-yl)-2-oxoethyl)-5-methylpiperazin-2-yl)methyl)morpholine-2-carboxamide)]: the IC50 is 15.8 to 31.6 nM in assay [1]; 10000 to 51300 nM in assay [2]; 7.94 to 15.8 nM in assay [3]; 1.38 to 7.94 nM in assay [4]; 22.4 to 1000 nM in assay [5]; 22.4 to 1000 nM in assay [6]. Further, the “XIAP BIR3 vs BIR2 separation window” value in assay [1] is listed as “++++ (FS>10,000)”. Besides, the “cIAP1 BIR3 vs BIR2 separation window” value in assay [3] is reported as “++ (1,000>FS>100)”. Besides, in assay [4], the “cIAP2 BIR3 vs BIR2 separation window” value is on record as “++ (1,000>FS>100)”. The EC50 in assay [7] was 0.49 to 12.6 nM.
For `C[C@@H]1CN(CC(=O)N2CC(C)(C)c3[nH]c(=O)c(Cc4ccc(Cl)cc4C(=O)N(C)C)cc32)[C@@H](CN2CCO[C@H](C(=O)NCc3ccc(CNC(=O)[C@@H]4CN(C[C@H]5CN[C@H](C)CN5CC(=O)N5CC(C)(C)c6[nH]c(=O)c(Cc7ccc(Cl)cc7C(=O)N(C)C)cc65)CCO4)cc3)C2)CN1` [Compound 172, (2S,2′S)-N,N′-(1,4-phenylenebis(methylene)) bis(4-(((2R,5R)-1-(2-(6-(4-chloro-2-(dimethylcarbamoyl)benzyl)-3,3-dimethyl-5-oxo-2,3,4,5-tetrahydro-1H-pyrrolo[3,2-b]pyridin-1-yl)-2-oxoethyl)-5-methylpiperazin-2-yl)methyl)morpholine-2-carboxamide)], the IC50 was 31.6 to 501 nM in assay [1]; 10000 to 51300 nM in assay [2]; 7.94 to 15.8 nM in assay [3]; 7.94 to 15.8 nM in assay [4]; 10000 to 51300 nM in assay [5]; 10000 to 51300 nM in assay [6]. For the same compound, the “XIAP BIR3 vs BIR2 separation window” value in assay [1] is recorded as “++++ (FS>10,000)”. In addition, the “cIAP1 BIR3 vs BIR2 separation window” value in assay [3] is “+++ (10,000>FS>1,000)”. For the same compound, the “cIAP2 BIR3 vs BIR2 separation window” value in assay [4] was “++++ (FS>10,000)”. Further, the EC50 in assay [7] was 316 to 3310 nM.
As for `C[C@@H]1CN(CC(=O)N2CC(C)(C)c3[nH]c(=O)c(Cc4cc(F)c(F)cc4F)cc32)[C@@H](CN2CCO[C@H](C(=O)NCc3ccc(CNC(=O)[C@@H]4CN(C[C@H]5CN[C@H](C)CN5CC(=O)N5CC(C)(C)c6[nH]c(=O)c(Cc7cc(F)c(F)cc7F)cc65)CCO4)cc3)C2)CN1` [Compound 175, (2S,2′S)-N,N′-(1,4-phenylenebis(methylene)) bis(4-(((2R,5R)-1-(2-(3,3-dimethyl-5-oxo-6-(2,4,5-trifluorobenzyl)-2,3,4,5-tetrahydro-1H-pyrrolo[3,2-b]pyridin-1-yl)-2-oxoethyl)-5-methylpiperazin-2-yl)methyl)morpholine-2-carboxamide)], the IC50 in assay [1] was 15.8 to 31.6 nM; in assay [2], 10000 to 51300 nM; in assay [3], 15.8 to 31.6 nM; in assay [4] it was 7.94 to 15.8 nM; in assay [5], 1000 to 3160 nM; in assay [6], 3160 to 10000 nM. For the same compound, in assay [1], the “XIAP BIR3 vs BIR2 separation window” value is “++++ (FS>10,000)”. In assay [3], the “cIAP1 BIR3 vs BIR2 separation window” value is “+++ (10,000>FS>1,000)”. In addition, in assay [4], the “cIAP2 BIR3 vs BIR2 separation window” value is “+++ (10,000>FS>1,000)”. In assay [7], the EC50 is 0.49 to 12.6 nM.
Take `C[C@@H]1CN(CC(=O)N2CC(C)(C)c3[nH]c(=O)c(Cc4ccc(F)cc4F)cc32)[C@@H](CN2CCO[C@H](C(=O)NCc3ccc(CNC(=O)[C@@H]4CN(C[C@H]5CN[C@H](C)CN5CC(=O)N5CC(C)(C)c6[nH]c(=O)c(Cc7ccc(F)cc7F)cc65)CCO4)cc3)C2)CN1` [Compound 177, (2S,2′S)-N,N′-(1,4-phenylenebis(methylene)) bis(4-(((2R,5R)-1-(2-(6-(2,4-difluorobenzyl)-3,3-dimethyl-5-oxo-2,3,4,5-tetrahydro-1H-pyrrolo[3,2-b]pyridin-1-yl)-2-oxoethyl)-5-methylpiperazin-2-yl)methyl)morpholine-2-carboxamide)]: the IC50 in assay [1] is 31.6 to 501 nM; in assay [2], 10000 to 51300 nM; in assay [3] it was 15.8 to 31.6 nM; in assay [4] it was 7.94 to 15.8 nM; in assay [5], 1000 to 3160 nM; in assay [6], 1000 to 3160 nM. For the same compound, in assay [1], the “XIAP BIR3 vs BIR2 separation window” value is “++++ (FS>10,000)”. The “cIAP1 BIR3 vs BIR2 separation window” value in assay [3] is recorded as “+++ (10,000>FS>1,000)”. Besides, the “cIAP2 BIR3 vs BIR2 separation window” value in assay [4] is recorded as “+++ (10,000>FS>1,000)”. Moreover, in assay [7], the EC50 is 0.49 to 12.6 nM.
Consider `C[C@@H]1CN(CC(=O)N2CC(C)(C)c3[nH]c(=O)c(Cc4ccc(F)cc4C#N)cc32)[C@@H](CN2CCO[C@H](C(=O)NCc3ccc(CNC(=O)[C@@H]4CN(C[C@H]5CN[C@H](C)CN5CC(=O)N5CC(C)(C)c6[nH]c(=O)c(Cc7ccc(F)cc7C#N)cc65)CCO4)cc3)C2)CN1` [Compound 179, (2S,2′S)-N,N′-(1,4-phenylenebis(methylene)) bis(4-(((2R,5R)-1-(2-(6-(2-cyano-4-fluorobenzyl)-3,3-dimethyl-5-oxo-2,3,4,5-tetrahydro-1H-pyrrolo[3,2-b]pyridin-1-yl)-2-oxoethyl)-5-methylpiperazin-2-yl)methyl)morpholine-2-carboxamide)], for which the IC50 in assay [1] was 31.6 to 501 nM; in assay [2], 10000 to 51300 nM; in assay [3], 15.8 to 31.6 nM; in assay [4], 15.8 to 31.6 nM; in assay [5], 1000 to 3160 nM; in assay [6], 1000 to 3160 nM. Moreover, the “XIAP BIR3 vs BIR2 separation window” value in assay [1] is “+++ (10,000>FS>1,000)”. Further, the “cIAP1 BIR3 vs BIR2 separation window” value in assay [3] is on record as “++ (1,000>FS>100)”. Also, the “cIAP2 BIR3 vs BIR2 separation window” value in assay [4] is reported as “+++ (10,000>FS>1,000)”. Further, the EC50 in assay [7] was 12.6 to 63.1 nM.
Turning to `C[C@@H]1CN(CC(=O)N2CC(C)(C)c3[nH]c(=O)c(Oc4ccc(F)cc4)cc32)[C@@H](CN2CCO[C@H](C(=O)NCc3ccc(CNC(=O)[C@@H]4CN(C[C@H]5CN[C@H](C)CN5CC(=O)N5CC(C)(C)c6[nH]c(=O)c(Oc7ccc(F)cc7)cc65)CCO4)cc3)C2)CN1` [Compound 181, (2S,2′S)-N,N′-(1,4-phenylenebis(methylene)) bis(4-(((2R,5R)-1-(2-(6-(4-fluorophenoxy)-3,3-dimethyl-5-oxo-2,3,4,5-tetrahydro-1H-pyrrolo[3,2-b]pyridin-1-yl)-2-oxoethyl)-5-methylpiperazin-2-yl)methyl)morpholine-2-carboxamide)], the IC50 in assay [1] is 1.38 to 7.94 nM; in assay [2], 10000 to 51300 nM; in assay [3], 1.38 to 7.94 nM; in assay [4], 1.38 to 7.94 nM; in assay [5] it was 3160 to 10000 nM; in assay [6] it was 3160 to 10000 nM. Moreover, the “XIAP BIR3 vs BIR2 separation window” value in assay [1] is given as “++++ (FS>10,000)”. Further, in assay [3], the “cIAP1 BIR3 vs BIR2 separation window” value is on record as “++++ (FS>10,000)”. In addition, the “cIAP2 BIR3 vs BIR2 separation window” value in assay [4] was “++++ (FS>10,000)”. Further, the EC50 in assay [7] is 63.1 to 316 nM.
Take `C[C@@H]1CN(CC(=O)N2CC(C)(C)c3[nH]c(=O)c(Oc4ccc(Br)cc4)cc32)[C@@H](CN2CCO[C@H](C(=O)NCc3ccc(CNC(=O)[C@@H]4CN(C[C@H]5CN[C@H](C)CN5CC(=O)N5CC(C)(C)c6[nH]c(=O)c(Oc7ccc(Br)cc7)cc65)CCO4)cc3)C2)CN1` [Compound 183, (2S,2′S)-N,N′-(1,4-phenylenebis(methylene)) bis(4-(((2R,5R)-1-(2-(6-(4-bromophenoxy)-3,3-dimethyl-5-oxo-2,3,4,5-tetrahydro-1H-pyrrolo[3,2-b]pyridin-1-yl)-2-oxoethyl)-5-methylpiperazin-2-yl)methyl)morpholine-2-carboxamide)]: the IC50 in assay [1] was 31.6 to 501 nM; in assay [2], 10000 to 51300 nM; in assay [3] it was 1.38 to 7.94 nM; in assay [4] it was 1.38 to 7.94 nM; in assay [5], 1000 to 3160 nM; in assay [6], 1000 to 3160 nM. Besides, the “XIAP BIR3 vs BIR2 separation window” value in assay [1] is “+++ (10,000>FS>1,000)”. Besides, the “cIAP1 BIR3 vs BIR2 separation window” value in assay [3] was “+++ (10,000>FS>1,000)”. Further, the “cIAP2 BIR3 vs BIR2 separation window” value in assay [4] is recorded as “+++ (10,000>FS>1,000)”. Further, the EC50 in assay [7] was 63.1 to 316 nM.
